From US20040047865A1, “Compositions and their uses” (priority 1995, published 2004)

Tests used:
[1] = system: XNA IgG, normal porcine endothelial cells (PAE-68#4); experiment: Two stage chromium release assay, inhibition of lysis by affinity-isolated IgG in the presence of sugars (FIG. 3); assay type: cell-based; conditions: IgG 80 μg/ml
Protocol: (§1) Briefly normal porcine endothelial cells were grown to confluence in 96well plates before being washed and labelled with ^51chromium. Excess label was removed and the cells were exposed to different concentrations of XNA. Unbound antibody was removed and 1/8 baby rabbit complement added for 1 hour at 37° C. Cell lysis was expressed as a percentage of the total counts associated with the endothelial cells, which could be detected in the medium after incubation of the cells with complement. […] Affinity-isolated IgM (10 μg/ml) or IgG (80 μg/ml) was incubated with endothelial cells as before in the presence of varying concentrations of four different sugar preparations. The cells were then washed and exposed to baby rabbit complement as previously described.

[2] = system: porcine endothelial cells; conditions: Neethling et al 1994; cited from earlier work
[3] = system: XNA IgM, normal porcine endothelial cells (PAE-68#4); experiment: Two stage chromium release assay, inhibition of lysis by affinity-isolated IgM in the presence of sugars (FIG. 3); assay type: cell-based; conditions: IgM 10 μg/ml
Protocol: as §1

pig endothelial cells = conditions: infusion into baboons; Ye et al 1994; cited from earlier work

Row | Compound | inhibition of cell lysis / IgG binding [1] | inhibition of the cytotoxic effects of human serum on porcine endothelial cells [2] | inhibition of cell lysis / XNA IgM binding [3] | protection of pig endothelial cells from killing by serum of infused baboons (pig endothelial cells)
1 | OC[C@H]1O[C@H](O[C@H]2[C@@H](O)[C@@H](CO)OC(O)[C@@H]2O)[C@H](O)[C@@H](O)[C@H]1O (stereo partly shown) [B-disaccharide, Galα1,3Gal] | minimal difference | best inhibitors |  | 
2 | CC(=O)N[C@H]1C(O)O[C@H](CO)[C@@H](O[C@@H]2O[C@H](CO)[C@H](O)[C@H](O[C@H]3O[C@H](CO)[C@H](O)[C@H](O)[C@H]3O)[C@H]2O)[C@@H]1O (stereo partly shown) [B-trisaccharide, Galα1,3Galβ1,4GlcNAc] | minimal difference | best inhibitors | superior to B-disaccharide | 
3 | arabinogalactan |  |  |  | A level of protection was afforded
4 | OC[C@H]1O[C@H](OCC2O[C@@H](O)[C@H](O)[C@@H](O)[C@@H]2O)[C@H](O)[C@@H](O)[C@H]1O (stereo partly shown) [melibiose] |  |  |  | A level of protection was afforded
